EC50 data for twelve compounds are collected here from US11230526B1, “Cylcoalkenyl derivatives useful as agonists of the GPR120 and/or GPR40 receptors” (Janssen Pharmaceutica NV, priority 2018, dated 2022).

Type in all cases: cell-based
Test [1] deals with T1, short form of the GPR120 receptor (Homo sapiens, UniProt Q5NUL3).
T1 construct: host or cells: PathHunter CHO-K1 GPR120S β-Arrestin Cell Line
Kind of test: Human GPR120 DiscoveRx PathHunter Beta-Arrestin assay, Procedure β-arrestin B. The source says: Human GPR120 DiscoveRx PathHunter® Beta-Arrestin Assay Assay Principle:
The binding of an agonist (medium/long chain fatty acids or small molecule agonists) to the G-protein-coupled receptor GPR120 activates phospholipase C, leading to release of intracellular Ca^+2 through the generation of inositol 1,4,5-trisphosphate (InsP3 or IP3). GPR120 activation can also trigger intracellular signaling via recruitment of Beta-Arrestin. In the present method, agonist-induced activation of the human GPR120 receptor is monitored through the use of PathHunter® CHO-K1 GPR120 Beta-Arrestin Cell Line engineered by DiscoveRx, as detailed below. The cell lines are designed to co-express both the ProLink/Enzyme Donor (PK)-tagged GPCR and the Enzyme […] (EA)-tagged Beta-Arrestin fusion proteins. Upon GPR120 receptor stimulation/activation, the EA-tagged Beta-Arrestin portion is translocated to the tagged receptor, where the two enzyme fragments are brought within close proximity. Under these conditions, these fragments can interact and form an active Beta-gal enzyme complex through Enzyme Fragment Complementation (EFC). This active Beta-gal complex can enzymatically hydrolyse the substrate to produce a detectable light signal; therefore, activation as a function of agonist concentration can be expressed as an EC50 value to determine relative compound activities. This in vitro assay therefore serves to assess compound agonist activity of the GPR120.
In Procedure β-arrestin B the cells used were PathHunter® CHO-K1 GPR120S β-Arrestin Cell Line, expressing the short form of the GPR120 receptor (Accession #[…]), with 5000 cells/well.
The selected CHO-K1 GPR120 β-Arrestin cells were cultured in Ham's F12 media supplemented with 10% fetal bovine serum (FBS), 1% Glutamine, 1×p/s, 800 μg/mL G418 and 300 μg/mL Hygromycin B (for selection). Cell stocks were maintained and grown in a sub-confluent state using standard cell culture procedures. The day before the experiment, the cells were harvested with non-enzymatic cell dissociation buffer and re-suspended in complete growth media at the desired concentration. A Corning 384-plate was then seeded with the proper number of cells in a volume of 25 μL, per well. The seeded plates were incubated overnight at 37° C.
On the day of the experiment, the Assay Buffer containing (a) HBSS with Ca^++ and Mg^++, (b) 20 mM HEPES, and (c) 0.1% BSA stabilizer (pH 7.4) was prepared. The growth medium was gently removed from the cell plates and 20 μL of Assay Buffer added to each well. The plate was then incubated at 37° C. for 60 min. Test compounds were serially diluted in Assay Buffer to desired concentrations (more particularly to one or more of the following μM concentrations: 25, 12.5, 6.25, 3.12, 1.56, 0.78, 0.39, 0.19, 0.10, 0.05, 0.02, 0.01). Five μL of compound dilution was then added to each well and the plate incubated at 37° C. for 90 min. The detection reagents were prepared according to the manufacture's instruction. Twelve μL of the detection reagents were added to each well and the plate incubated at room temperature for 60 min.
The plates were read on an EnVision instrument, using Protocol name: Luminescence, Plate type: 384 Costar, Measurement height: 3 mm, Measurement time: 1 s, Aperture: 384 Plate aperture. The % Activity relative to the positive control was calculated using the following equation:
The % Activity values were plotted versus the concentration of test compound and fitted to a sigmoidal dose-response curve with a Hill slope=1 (fixed value) using nonlinear regression with GraphPad Prism 5.0 to calculate the EC50 values. The Fitting Equation was: Y=Bottom+(Top-Bottom)/(1+10^((Log EC50−X)*HillSlope)), where X is the log of the concentration and Y is the response.

Another test concerns the target T2, human GPR40 (Homo sapiens, UniProt O14842).
T2 construct: expressed in transfected cells
Kind of test: GPR40 calcium flux assay, human GPR40. Particulars: HEK293 cells stably expressing GPR40; table does not say human or rat. Put shortly: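 Cells preincubated 1 h at 37° C. in HBSS, 20 mM HEPES, 0.1% BSA, then Fluo 8 calcium dye 30 min at 37° C. and 15 min at room temperature.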
Background: A change in cytosolic calcium serves as a functional read-out for many receptors and channels.

Test [2] concerns the target T3, Human GPR120 short form (Homo sapiens, UniProt Q5NUL3).
T3 construct: expressed in transfected cells
T3 sequence (Q5NUL3 1-361): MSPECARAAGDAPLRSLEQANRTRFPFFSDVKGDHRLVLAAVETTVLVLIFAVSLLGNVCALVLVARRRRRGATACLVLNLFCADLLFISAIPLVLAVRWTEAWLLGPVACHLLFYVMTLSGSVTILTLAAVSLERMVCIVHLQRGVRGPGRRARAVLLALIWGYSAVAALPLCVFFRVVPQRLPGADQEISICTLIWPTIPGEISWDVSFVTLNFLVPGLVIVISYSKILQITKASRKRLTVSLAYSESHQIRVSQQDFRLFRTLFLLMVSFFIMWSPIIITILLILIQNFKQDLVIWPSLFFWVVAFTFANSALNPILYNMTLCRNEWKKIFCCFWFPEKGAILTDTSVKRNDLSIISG
Kind of test: Human GPR120 calcium flux assay, Procedure Calcium B (4200 cells/well). The gist of the method: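 HEK293 cells stably expressing human GPR120 (NM_001195755.1), 4200 cells/well, starved 1 h and loaded with Fluo-4 NW plus probenecid. Ligand-evoked calcium flux read on FLIPR for 300 s after a 10 s baseline. RFU = Fmax−Fmin; EC50 from four-parameter concentration-response fit.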

Test [3] has as its target T3, Human GPR120 short form. Put plainly: Human GPR120 calcium flux assay, Procedure Calcium A (2500 cells/well). An excerpt:
Human GPR120 in Calcium Flux Assay
This in vitro assay serves to assess test compound agonist activity against the short splice variant (SVS with Accession number NM_001195755.1 confirmed by sequencing data) of the GPR120 receptor. The Human Short splice variant #2 (NM_001195755.1) is missing an in-frame coding exon compared to variant 1 (the Human Long splice variant NM_181745.3), resulting in a shorter isoform (GPR120-S) lacking a 16 aa protein segment compared to isoform GPR120-L. The assay platform utilizes HEK-293 cells stably transfected to express the Human GPR120 short form. These cells are first loaded with the Ca^+2 sensitive dye, Fluo-4 NW. Upon stimulation, intracellular released Ca^+2 can bind to the dye and alter its fluorescence intensity. This increase in fluorescence signal, and thus the flux in intracellular [Ca^2+], is detected and quantitated by fluorescence imaging using a FLIPR reader. The effect of the agonist is measured as a function of concentration and used to calculate an EC50 based upon a response curve.
In this procedure 2500 cells/well were employed.
A Human GPR120 clone (Genbank accession number NM_001195755.1) was placed into the pcDNA3.1 mammalian expression vector carrying the neomycin resistance gene. A stable mammalian cell was generated by placing the above clone into a HEK293 background. Clonal cells responding to long chain fatty acids had expression levels of GPR120 confirmed by RT-qPCR. Human HEK-GPR120 cells were cultured in Dulbecco's Modified Eagle's Medium (DMEM)/F12 medium supplemented with 10% fetal bovine serum (FBS), 1% L-Glutamine and 1% penicillin/streptomycin and 0.5 mg/ml G-418. Cells were split 2 times a week to keep the cells in the log-phase growth.
In preparation for the assay, HEK cells stably transfected with Human GPR120 (2.5K cells per well in 25 uL growth medium) were seeded into 384-well plates and then incubated overnight (37° C., 5% CO2). The next day, the media was changed to 20 μL assay buffer and the cell starved for 1 h at 37° C. The dye loading solution (2× dye) was prepared using 10 mL assay buffer, 100 μL of 250 mM probenecid, 1 bottle of Component A, and 20 μl of dye in DMSO. Twenty μL of the 2× dye loading buffer was then added to each well. The plates were incubated at 37° C. for 30 min, then at room temperature for an additional 15 minutes, before performing the assay on FLIPR.
The assay was performed on a FLIPR plate reader using the following parameters. Baseline was read for 10 seconds at 1 sec intervals. The program was set to transfer 10 μL of ligand from compound plate to cell plate after baseline reading. Aspiration was executed at: 10 μL/sec speed, 4.6 μL height, Dispensing was executed at: 30 μL/sec speed, 45 μL height. After compound addition, each well was read for 300 sec, with measurements collected at 1 sec intervals.
The kinetic data from the FLIPR was based upon a 5 minute window for data collection. The fluorescence of each sample well was used for individual calculations of a normalized RFU value, which was defined as maximum response minus the minimum response. The normalized fluorescence reading (RFU) was calculated as follows: RFU=Fmax−Fmin
The Fitting Equation was: Y=Bottom+(Top-Bottom)/(1+10^((Log EC50−X)*HillSlope)), where X is the log of the concentration and Y is the response.

One may read the EC50 as the concentration that produces a half-maximal response.

Bounds are passed on as bounds.

T1 sequence (P32121 whole entry partner, one chain of several): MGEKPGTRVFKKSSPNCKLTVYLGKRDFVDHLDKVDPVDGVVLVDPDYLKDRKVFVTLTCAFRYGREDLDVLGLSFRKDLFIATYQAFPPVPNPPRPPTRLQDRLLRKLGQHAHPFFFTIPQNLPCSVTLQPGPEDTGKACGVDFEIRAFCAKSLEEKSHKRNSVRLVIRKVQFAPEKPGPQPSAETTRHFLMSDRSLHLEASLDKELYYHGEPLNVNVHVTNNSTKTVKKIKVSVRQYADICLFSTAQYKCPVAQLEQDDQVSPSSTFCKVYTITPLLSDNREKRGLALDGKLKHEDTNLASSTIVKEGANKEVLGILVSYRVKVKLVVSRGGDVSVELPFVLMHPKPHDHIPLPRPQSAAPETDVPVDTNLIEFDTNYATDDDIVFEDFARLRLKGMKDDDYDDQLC
T2 sequence (O14842 whole entry): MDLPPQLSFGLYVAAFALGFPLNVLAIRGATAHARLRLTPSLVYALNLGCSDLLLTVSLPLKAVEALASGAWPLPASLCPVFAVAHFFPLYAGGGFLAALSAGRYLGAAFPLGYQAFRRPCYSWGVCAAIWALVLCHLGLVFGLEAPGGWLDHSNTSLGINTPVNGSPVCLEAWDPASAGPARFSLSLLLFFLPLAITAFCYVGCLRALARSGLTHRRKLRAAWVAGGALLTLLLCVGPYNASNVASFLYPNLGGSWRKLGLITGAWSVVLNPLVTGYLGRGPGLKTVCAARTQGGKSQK

As to `O=C(O)CCc1ccc(OCC2=C(c3ccc(Cl)cc3)CCC2)c(Br)c1` [Compound 129, 3-[3-bromo-4-[[2-(4-chlorophenyl)cyclopenten-1-yl]methoxy]phenyl]Propanoic Acid], the EC50 was 47 nM in test [1], above 5000 nM on human GPR40 and 21 nM at Human GPR120 short form [2].
`Cc1ccc(C2=C(COc3c(F)cc(CCC(=O)O)cc3F)CCC2)cc1N` [Compound 135, 3-(4-((2-(3-amino-4-methylphenyl)cyclopent-1-en-1-yl)methoxy)-3,5-difluorophenyl)Propanoic Acid]: the results for the half-maximal effective concentration (EC50) (in test [1]; at human GPR40) were 1250 nM and above 5000 nM, respectively.
Consider `Cc1c(CCC(=O)O)ccc(OCC2=C(c3cc(Cl)cc(Cl)c3)CCC2)c1C` [Compound 112, 3-[4-[[2-(3,5-dichlorophenyl)cyclopenten-1-yl]methoxy]-2,3-dimethyl-phenyl]Propanoic Acid′], for which the values for the EC50 at Human GPR120 short form [3], at human GPR40 and on Human GPR120 short form [2] were 2460 nM, above 5000 nM and 3070 nM, respectively.
With `Cc1c(CCC(=O)O)ccc(OCC2=C(c3ccncc3)CCCC2)c1C` [Compound 465, 3-[2,3-dimethyl-4-[[2-(4-pyridyl)cyclohexen-1-yl]methoxy]phenyl]Propanoic Acid], the EC50 on Human GPR120 short form [3] is 2170 nM; at human GPR40 it was above 5000 nM; on Human GPR120 short form [2], 1450 nM.
As for `Cc1cc(OCC2=C(c3ccc(Cl)cc3)CCC2)cc(C)c1CCC(=O)O` [Compound 119, 3-(4-((2-(4-chlorophenyl)cyclopent-1-en-1-yl)methoxy)-2,6-dimethylphenyl)Propanoic Acid], the EC50 was 895 nM at Human GPR120 short form [3], above 5000 nM on human GPR40 and 327 nM at Human GPR120 short form [2].
With `Cc1ccc(C2=C(COc3ccc(CCC(=O)O)c(F)c3F)CCC2)cn1` [Compound 87, 3-(2,3-difluoro-4-((2-(6-methylpyridin-3-yl)cyclopent-1-en-1-yl)methoxy)phenyl)Propanoic Acid], the EC50 is 493 nM in test [1] and above 5000 nM at human GPR40.
As to `Cc1c(CCC(=O)O)ccc(OCC2=C(c3ccc(Cl)cc3)CCC2C(F)(F)F)c1C` (stereo not drawn) [Compound 12, 3-[4-[[2-(4-chlorophenyl)-5-(trifluoromethyl)cyclopenten-1-yl]methoxy]-2,3-dimethyl-phenyl]Propanoic Acid], the results for the 50% effective concentration (EC50) (in test [1]; at human GPR40; at Human GPR120 short form [2]) were 93 nM, above 5000 nM and 481 nM, respectively.
In the case of `Cc1ccc(C2=C(COc3ccc(CCC(=O)O)cc3C)CCCC2)cn1` [Compound 477, 3-[3-methyl-4-[[2-(6-methyl-3-pyridyl)cyclohexen-1-yl]methoxy]phenyl]Propanoic Acid], the EC50 at Human GPR120 short form [3] was 1180 nM; at human GPR40 it was above 5000 nM; on Human GPR120 short form [2] it was 256 nM.
Consider `Cc1ccc(C2=C(COc3ccc(CCC(=O)O)c(C)c3C)CCCC2)cn1` [Compound 521], for which the half-maximal effective concentration (EC50) on Human GPR120 short form [3] was 1280 nM; on human GPR40, above 5000 nM; on Human GPR120 short form [2], 626 nM.
On to `O=C(O)CCc1cc(F)c(OCC2=C(c3ccc(Cl)cc3)CCC(F)(F)C2)c(F)c1` [Compound 491, 3-[4-[[2-(4-chlorophenyl)-5,5-difluoro-cyclohexen-1-yl]methoxy]-3,5-difluoro-phenyl]Propanoic Acid], for which the 50% effective concentration (EC50) is 532 nM on Human GPR120 short form [3], above 5000 nM at human GPR40 and 97 nM on Human GPR120 short form [2].
For the compound `CC(Cc1ccc(OCC2=C(c3ccc(F)cc3)CCC2)c(F)c1)C(=O)O` (stereo not drawn) [Compound 458, 3-(3-fluoro-4-((2-(4-fluorophenyl)cyclopent-1-en-1-yl)methoxy)phenyl)-2-methylpropanoic Acid], the concentration giving a half-maximal response (EC50) in test [1] stood at 371 nM; on Human GPR120 short form [2], 331 nM.
Turning to `CCCc1ccc(C2=C(COc3ccc(CCC(=O)O)c(C)c3C)CCCC2)cc1` [Compound 463, 3-[2,3-dimethyl-4-[[2-(4-propylphenyl)cyclohexen-1-yl]methoxy]phenyl]Propanoic Acid], the concentration giving a half-maximal response (EC50) at Human GPR120 short form [3] was 4810 nM; at human GPR40 it was above 5000 nM; at Human GPR120 short form [2] it was 1620 nM.
